Measurements from patent US20090156511A1, “Agent for Enhancing Antiseptic Power” (Kao Corporation, priority 2005, published 2009).

Test system: Staphylococcus aureus IF013276, Escherichia coli IF03972, Pseudomonas aeruginosa IF013275
Test: Antibacterial test (inoculated composition held at 30° C., colony counting method)
Format: cell-based
Procedure: The following bacteria were suspended in a physiological saline such that the number of bacteria or spores was 10^8 CFU/mL. to prepare a bacteria-containing solution. Then, 0.005 mL of the thus obtained bacteria-containing solution was inoculated into 5 mL of the composition to be tested such that the bacteria concentration therein was […]. The thus inoculated composition was held at 30° C. for a predetermined period of time to measure the change in number of bacteria with time by the calculation using a colony counting method. The antibacterial property of the composition was evaluated according to the following four ratings.
Staphylococcus aureus IF013276
Pseudomonas aeruginosa IF013275
⊚: Sufficiently high antibacterial property (number of bacteria was decreased by […] or more)
◯: High antibacterial property (number of bacteria was decreased by […])
Δ: Low antibacterial property (number of bacteria was decreased by 10^2 to 10^1)

Row | Substance | antibacterial property by itself (0.1% by mass in water without antiseptic agent, Table 1, after 9 days) | antibacterial property by itself (0.1% by mass without antiseptic agent, with polyoxyethylene (60) hydrogenated castor oil, Table 2, after 7 days)
1 | α,β-n-dodecyl galactoside | no antibacterial property | 
2 | α,β-2-hexyldecyl galactoside |  | no antibacterial property
